Measured values as given in patent US7935686B2, “Acyloxyalkyl carbamate prodrugs, methods of synthesis, and use” (XenoPort, Inc., priority 2004, dated 2011).

Tested on: not listed separately
Test: Prodrug in vitro metabolism, rat plasma
Assay type: in vitro ADME
Settings: 2.0 μM substrate, no cofactors, 37° C.
Method: (§1) The stabilities of prodrugs were evaluated in one or more in vitro systems using a variety of preparations following methods known in the art. Tissues and/or preparations were obtained from commercial sources (e.g., Pel-Freez Biologicals, Rogers, Ark., or GenTest Corporation, Woburn, Mass.). Experimental conditions used for the in vitro studies are described in Table 1. Each preparation was incubated with test compound at 37° C. for one hour. Aliquots (50 μL) were removed at 0, 30, and 60 min and quenched with 0.1% trifluoroacetic acid in acetonitrile. Samples were then centrifuged and analyzed by LC/MS/MS. Stability of prodrugs towards specific enzymes (e.g., peptidases, etc.) were also assessed in vitro by incubation with the purified enzyme: […]

Going from `CP(=O)(O)CCCNC(=O)OCOC(=O)c1ccccc1` [Compound 195, 3-{[Benzoyloxymethoxy]carbonylamino}propyl Methylphosphinic Acid] to `CC(C)C(=O)OCOC(=O)NCCCP(C)(=O)O` [Compound 115, 3-{[Isobutanoyloxymethoxy]carbonylamino}propyl Methylphosphinic Acid], the “Percent of Prodrug Remaining after 60 min.” value (from here on “Percent of Prodrug Remaining”) falls from 100% to 7%.

Going from `CC(OC(=O)NCCCP(C)(=O)O)OC(=O)C(C)C` (stereo not shown) [Compound 111, 3-{[1-Isobutanoyloxyethoxy]carbonylamino}propyl Methylphosphinic Acid] to `CC(C)C(=O)OC(OC(=O)NCCCP(C)(=O)O)C(C)C` (stereo not shown) [Compound 194, 3-{[1-Isobutanoyloxyisobutoxy]carbonylamino}propyl Methylphosphinic Acid], the “Percent of Prodrug Remaining” value falls from 40% to 38%.

With `CC(OC(=O)NCCCP(C)(=O)O)OC(=O)C1CCCCC1` (stereo not shown) [Compound 114, 3-{[1-Cyclohexanoyloxyethoxy]carbonylamino}propyl Methylphosphinic Acid] the “Percent of Prodrug Remaining” value was 98%.

Tested on: not listed separately
Test: Prodrug in vitro metabolism, human plasma
Assay type: in vitro ADME
Settings: 2.0 μM substrate, no cofactors, 37° C.
Method: as §1

First: CP(=O)(O)CCCNC(=O)OCOC(=O)c1ccccc1 [Compound 195, 3-{[Benzoyloxymethoxy]carbonylamino}propyl Methylphosphinic Acid]
Second: CC(C)C(=O)OCOC(=O)NCCCP(C)(=O)O [Compound 115, 3-{[Isobutanoyloxymethoxy]carbonylamino}propyl Methylphosphinic Acid]
The “Percent of Prodrug Remaining” value of the first is higher: 78% for the first, 30% for the second.

Compared with `CC(OC(=O)NCCCP(C)(=O)O)OC(=O)C(C)C` (stereo not shown) [Compound 111, 3-{[1-Isobutanoyloxyethoxy]carbonylamino}propyl Methylphosphinic Acid], `CC(C)C(=O)OC(OC(=O)NCCCP(C)(=O)O)C(C)C` (stereo not shown) [Compound 194, 3-{[1-Isobutanoyloxyisobutoxy]carbonylamino}propyl Methylphosphinic Acid] is lower in “Percent of Prodrug Remaining” value: 84% for the first, 77% for the second.

With `CC(OC(=O)NCCCP(C)(=O)O)OC(=O)C1CCCCC1` (stereo not shown) [Compound 114, 3-{[1-Cyclohexanoyloxyethoxy]carbonylamino}propyl Methylphosphinic Acid] the “Percent of Prodrug Remaining” value was 97%.

Tested on: not listed separately
Test: Prodrug in vitro metabolism, rat liver S9
Assay type: in vitro ADME
Settings: Rat Liver S9 (0.5 mg/mL), 2.0 μM substrate, NADPH, 37° C.
Method: as §1

Compared with `CP(=O)(O)CCCNC(=O)OCOC(=O)c1ccccc1` [Compound 195, 3-{[Benzoyloxymethoxy]carbonylamino}propyl Methylphosphinic Acid], `CC(C)C(=O)OCOC(=O)NCCCP(C)(=O)O` [Compound 115, 3-{[Isobutanoyloxymethoxy]carbonylamino}propyl Methylphosphinic Acid] is lower in “Percent of Prodrug Remaining” value: 85% for the first, 67% for the second.

Going from `CC(OC(=O)NCCCP(C)(=O)O)OC(=O)C(C)C` (stereo not shown) [Compound 111, 3-{[1-Isobutanoyloxyethoxy]carbonylamino}propyl Methylphosphinic Acid] to `CC(C)C(=O)OC(OC(=O)NCCCP(C)(=O)O)C(C)C` (stereo not shown) [Compound 194, 3-{[1-Isobutanoyloxyisobutoxy]carbonylamino}propyl Methylphosphinic Acid], the “Percent of Prodrug Remaining” value falls from 82% to 63%.

In the case of `CC(OC(=O)NCCCP(C)(=O)O)OC(=O)C1CCCCC1` (stereo not shown) [Compound 114, 3-{[1-Cyclohexanoyloxyethoxy]carbonylamino}propyl Methylphosphinic Acid], the “Percent of Prodrug Remaining” value is reported as 51%.

Tested on: not listed separately
Test: Prodrug in vitro metabolism, human liver S9
Assay type: in vitro ADME
Settings: Human Liver S9 (0.5 mg/mL), 2.0 μM substrate, NADPH, 37° C.
Method: as §1

First: CP(=O)(O)CCCNC(=O)OCOC(=O)c1ccccc1 [Compound 195, 3-{[Benzoyloxymethoxy]carbonylamino}propyl Methylphosphinic Acid]
Second: CC(C)C(=O)OCOC(=O)NCCCP(C)(=O)O [Compound 115, 3-{[Isobutanoyloxymethoxy]carbonylamino}propyl Methylphosphinic Acid]
The “Percent of Prodrug Remaining” value of the first is higher: 64% for the first, 57% for the second.

Compared with `CC(OC(=O)NCCCP(C)(=O)O)OC(=O)C(C)C` (stereo not shown) [Compound 111, 3-{[1-Isobutanoyloxyethoxy]carbonylamino}propyl Methylphosphinic Acid], `CC(C)C(=O)OC(OC(=O)NCCCP(C)(=O)O)C(C)C` (stereo not shown) [Compound 194, 3-{[1-Isobutanoyloxyisobutoxy]carbonylamino}propyl Methylphosphinic Acid] is lower in “Percent of Prodrug Remaining” value: 81% for the first, 66% for the second.

For `CC(OC(=O)NCCCP(C)(=O)O)OC(=O)C1CCCCC1` (stereo not shown) [Compound 114, 3-{[1-Cyclohexanoyloxyethoxy]carbonylamino}propyl Methylphosphinic Acid], the “Percent of Prodrug Remaining” value was 43%.

Tested on: not listed separately
Test: Caco-2 homogenate S9 stability
Assay type: in vitro ADME
Settings: Caco-2 S9 (0.5 mg protein per mL), 5 μM prodrug, 37° C.
Method: Caco-2 Homogenate S9 Stability: Caco-2 cells were grown for 21 days prior to harvesting. Culture medium was removed and cell monolayers were rinsed and scraped off into ice-cold 10 mM sodium phosphate/0.15 M potassium chloride, pH 7.4. Cells were lysed by sonication at 4° C. using a probe sonicator. Lysed cells were then transferred into 1.5 mL centrifuge vials and centrifuged at 9000 g for 20 min at 4° C. The resulting supernatant (Caco-2 cell homogenate S9 fraction) was aliquoted into 0.5 mL vials and stored at −80° C. until used.
For stability studies, prodrug (5 μM) was incubated in Caco-2 homogenate S9 fraction (0.5 mg protein per mL) for 60 min at 37° C. Concentrations of intact prodrug and released parent drug were determined at zero time and 60 minutes using LC/MS/MS.

Going from `CP(=O)(O)CCCNC(=O)OCOC(=O)c1ccccc1` [Compound 195, 3-{[Benzoyloxymethoxy]carbonylamino}propyl Methylphosphinic Acid] to `CC(C)C(=O)OCOC(=O)NCCCP(C)(=O)O` [Compound 115, 3-{[Isobutanoyloxymethoxy]carbonylamino}propyl Methylphosphinic Acid], the “Percent of Prodrug Remaining” value falls from 91% to 20%.

First: CC(OC(=O)NCCCP(C)(=O)O)OC(=O)C(C)C (stereo not shown) [Compound 111, 3-{[1-Isobutanoyloxyethoxy]carbonylamino}propyl Methylphosphinic Acid]
Second: CC(C)C(=O)OC(OC(=O)NCCCP(C)(=O)O)C(C)C (stereo not shown) [Compound 194, 3-{[1-Isobutanoyloxyisobutoxy]carbonylamino}propyl Methylphosphinic Acid]
The “Percent of Prodrug Remaining” value of the first is higher: 82% for the first, 71% for the second.

With `CC(OC(=O)NCCCP(C)(=O)O)OC(=O)C1CCCCC1` (stereo not shown) [Compound 114, 3-{[1-Cyclohexanoyloxyethoxy]carbonylamino}propyl Methylphosphinic Acid] the “Percent of Prodrug Remaining” value was 82%.

Tested on: pancreatin
Test: Pancreatin stability
Assay type: in vitro ADME, porcine
Settings: 1% (w/v) pancreatin, 5 μM prodrug, pH 7.5, 37° C.
Method: The stabilities of prodrugs were evaluated in one or more in vitro systems using a variety of preparations following methods known in the art. Tissues and/or preparations were obtained from commercial sources (e.g., Pel-Freez Biologicals, Rogers, Ark., or GenTest Corporation, Woburn, Mass.). Experimental conditions used for the in vitro studies are described in Table 1. Each preparation was incubated with test compound at 37° C. for one hour. Aliquots (50 μL) were removed at 0, 30, and 60 min and quenched with 0.1% trifluoroacetic acid in acetonitrile. Samples were then centrifuged and analyzed by LC/MS/MS. Stability of prodrugs towards specific enzymes (e.g., peptidases, etc.) were also assessed in vitro by incubation with the purified enzyme:
Pancreatin Stability: Stability studies were conducted by incubating prodrug (5 μM) with 1% (w/v) pancreatin (Sigma, P-1625, from porcine pancreas) in 0.025 M Tris buffer containing 0.5 M NaCl (pH 7.5) at 37° C. for 60 min. The reaction was stopped by addition of 2 volumes of methanol. After centrifugation at 14,000 rpm for 10 min, the supernatant was removed and analyzed by LC/MS/MS.

Going from `CP(=O)(O)CCCNC(=O)OCOC(=O)c1ccccc1` [Compound 195, 3-{[Benzoyloxymethoxy]carbonylamino}propyl Methylphosphinic Acid] to `CC(C)C(=O)OCOC(=O)NCCCP(C)(=O)O` [Compound 115, 3-{[Isobutanoyloxymethoxy]carbonylamino}propyl Methylphosphinic Acid], the “Percent of Prodrug Remaining” value falls from 62% to 20%.

Compared with `CC(OC(=O)NCCCP(C)(=O)O)OC(=O)C(C)C` (stereo not shown) [Compound 111, 3-{[1-Isobutanoyloxyethoxy]carbonylamino}propyl Methylphosphinic Acid], `CC(C)C(=O)OC(OC(=O)NCCCP(C)(=O)O)C(C)C` (stereo not shown) [Compound 194, 3-{[1-Isobutanoyloxyisobutoxy]carbonylamino}propyl Methylphosphinic Acid] is higher in “Percent of Prodrug Remaining” value: 79% for the first, 91% for the second.

For `CC(OC(=O)NCCCP(C)(=O)O)OC(=O)C1CCCCC1` (stereo not shown) [Compound 114, 3-{[1-Cyclohexanoyloxyethoxy]carbonylamino}propyl Methylphosphinic Acid], the “Percent of Prodrug Remaining” value was 24%.

Tested on: not given
Test: not given
Settings: animal models (Merino et al.); cited from earlier work

In the case of `NCC(CC(=O)O)c1ccc(Cl)cc1` (racemic) [Baclofen, (±)-4-Amino-3-(4-chlorophenyl)butanoic acid], the “absorption following administration into the colon” value is given as “poorly absorbed”.
